Where a chain is given by its changes, count along the chain named. Where no end group is shown, it is not given here.

Broadly, the Kd is the constant that tells how readily two partners part at equilibrium. A higher Kd goes with lower affinity.

Holding throughout (assay type): binding
For one assay, the target named is T1, huUHRF1-PHD296–367 D337A (Homo sapiens, UniProt Q96T88, D337A).
T1 construct: Characterization of key residues for the recognition of the histone H3 tail by huUHRF1-PHD296–367; (His)6-GST (N, cleaved yes); made in house; host or cells: Escherichia coli Rosetta 2
T1 sequence (Q96T88 296-367 D337A): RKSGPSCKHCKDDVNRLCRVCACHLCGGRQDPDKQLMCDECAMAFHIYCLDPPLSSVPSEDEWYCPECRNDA
Put plainly: ITC, D337A mutant. The following applies: 20°C, 20 mM Tris pH 7, 150 mM NaCl, 0.5 mM TCEP, 25 µM ZnCl2, at least in duplicates. As to the method:
(§1) Measurements were carried out at 20°C on an ITC200 Microcal calorimeter (MicroCal). Histone peptides (1–12Y, 1.5–2 mM) were injected to a sample of either wild-type or mutant huUHRF1-PHD (0.12–0.18 mM) in a reaction buffer containing 20 mM Tris pH 7, 150 mM NaCl, 0.5 mM TCEP, 25 µM ZnCl2 and 0.1 mM PMSF. A typical titration consisted of 19 injections of 2 µl of peptide into 203 µl of the protein solution at time intervals of 150–300 s. Control experiments were performed under identical conditions to determine the dilution heat of the titrant peptide into buffer. Data were analyzed using the software ORIGIN 5.0 (OriginLab Corporation) and all the measurements were performed, at least, in duplicates.

Another assay has as its target T2, huUHRF1-PHD296–367 D334A (Homo sapiens, UniProt Q96T88, D334A).
T2 construct: Characterization of key residues for the recognition of the histone H3 tail by huUHRF1-PHD296–367; (His)6-GST (N, cleaved yes); made in house; host or cells: Escherichia coli Rosetta 2
T2 sequence (Q96T88 296-367 D334A): T1 sequence (Q96T88 296-367 D337A) with D39A, A42D
Description: ITC, D334A mutant. The conditions noted are these: 20°C, 20 mM Tris pH 7, 150 mM NaCl, 0.5 mM TCEP, 25 µM ZnCl2, at least in duplicates. As to the method: as §1

In another assay the target is T3, huUHRF1-PHD296–367 (Homo sapiens, UniProt Q96T88).
T3 construct: (His)6-GST (N, cleaved yes); made in house; host or cells: Escherichia coli Rosetta 2
T3 sequence (Q96T88 296-367): T1 sequence (Q96T88 296-367 D337A) with A42D
Put plainly: ITC, wild-type huUHRF1-PHD296–367 with histone H3 peptides. The following applies: 20°C, 20 mM Tris pH 7, 150 mM NaCl, 0.5 mM TCEP, 25 µM ZnCl2, 0.1 mM PMSF, peptide 1.5–2 mM into protein 0.12–0.18 mM, at least in duplicates. As to the method: Measurements were carried out at 20°C on an ITC200 Microcal calorimeter (MicroCal). […] A typical titration consisted of 19 injections of 2 µl of peptide into 203 µl of the protein solution at time intervals of 150–300 s. Control experiments were performed under identical conditions to determine the dilution heat of the titrant peptide into buffer. Data were analyzed using the software ORIGIN 5.0 (OriginLab Corporation) and all the measurements were performed, at least, in duplicates.

With `C[C@H](N)C(=O)N[C@@H](CCCNC(=N)N)C(=O)N[C@H](C(=O)N[C@@H](CCCCN)C(=O)N[C@@H](CCC(N)=O)C(=O)N[C@H](C(=O)N[C@@H](C)C(=O)N[C@@H](CCCNC(=N)N)C(=O)N[C@@H](CCCCN)C(=O)N[C@@H](CO)C(=O)N[C@H](C(=O)NCC(=O)N[C@@H](Cc1ccc(O)cc1)C(=O)O)[C@@H](C)O)[C@@H](C)O)[C@@H](C)O` [H3 (1-12Y)], the Kd on huUHRF1-PHD296–367 D337A is 68 ± 8 µM; on huUHRF1-PHD296–367 D334A, above 500 µM.
The compound `C[C@H](N)C(=O)N[C@@H](CCCNC(=N)N)C(=O)N[C@H](C(=O)N[C@@H](CCCCN)C(=O)N[C@@H](CCC(N)=O)C(=O)N[C@H](C(=O)N[C@@H](C)C(=O)N[C@@H](CCCNC(=N)N)C(=O)N[C@@H](CCCCN)C(=O)N[C@@H](CO)C(=O)N[C@H](C(=O)NCC(=O)N[C@@H](Cc1ccc(O)cc1)C(=O)O)[C@@H](C)O)[C@@H](C)O)[C@@H](C)O` [unmodified H3] registered a Kd on huUHRF1-PHD296–367 of 7.9 µM.
As for ARTAQTARKSTGY [H3K4A (1-12Y)], the affinity at huUHRF1-PHD296–367, expressed as Kd, was 16.6 ± 0.9 µM.
